pIC50: −log10 of the molar value.
Target: AT2 Receptor (AT2R) (Homo sapiens (Human), UniProt P50052)
Assay: Measurement of inhibitory activity on AT2 receptor (Tag-lite HTRF, Tb-labeled AT2R cells, angiotensin receptor red agonist)
Assay type: binding
Settings: 1 h room temperature
Method: Measurement of Inhibitory Activity on AT1 Receptor ([…])/AT2 Receptor (AT2R)
Through the following steps, the inhibitory activity of the compound on AT1R/AT2R (IC50 value) was determined:
1) An appropriate amount of 1×TLB (Tag-lite Buffer) was prepared and well mixed for use.
2) The compound was diluted by 10 times with ddH2O or DMSO. The compound was then dilute to 4 times of the working concentration with 1×TLB and mixed well for use.
3) 8600 nM Tag-lite angiotensin receptor red agonist was diluted to 12 nM (4×Kd) with 1×TLB.
4) 5 ml 1×TLB was taken into a 15 ml centrifuge tube.
5) After thawing 1 tube of Tb-labeled AT1R/AT2R cells in a 37° C. water bath, the cells were quickly transferred to the 1×TLB in step 4), mixed gently, and centrifuged at 1200 g for 5 minutes at room temperature.
6) The supernatant was aspirated gently, and the cells were resuspended and mixed in 2.7 ml 1×TLB, and then placed at room temperature until use.
7) 10 μl cells were added to all test wells, and 5 μl 4× working solution of the compound from step 2) was added to the corresponding test wells. 5 μl 4× Tag-lite angiotensin receptor red agonist well diluted in step 3) was added to all test wells.
8) After leaving the reaction plate at room temperature for 1 h, data were measured and analyzed using Envision HTRF Reader, and the half inhibitory concentration (IC50) of the compound on AT1R/AT2R was calculated with the GraphPad Prism four-parameter equation.

AT2 Receptor (AT2R), sequence (P50052 whole entry): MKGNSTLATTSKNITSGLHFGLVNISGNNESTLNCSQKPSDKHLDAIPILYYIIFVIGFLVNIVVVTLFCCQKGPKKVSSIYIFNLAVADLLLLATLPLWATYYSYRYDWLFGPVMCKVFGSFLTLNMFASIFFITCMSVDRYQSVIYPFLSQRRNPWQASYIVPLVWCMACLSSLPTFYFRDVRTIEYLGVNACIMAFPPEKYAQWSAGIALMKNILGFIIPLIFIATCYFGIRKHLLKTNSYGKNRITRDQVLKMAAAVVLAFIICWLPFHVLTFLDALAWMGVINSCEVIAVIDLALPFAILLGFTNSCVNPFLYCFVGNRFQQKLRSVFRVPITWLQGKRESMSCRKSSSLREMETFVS

Row | Compound | pIC50
1 | C[C@@H](c1ccccc1)N(C)C(=O)N1[C@H]2CC[C@@H]1[C@@H](C(=O)O)N(C(=O)N(c1ccccc1)c1ccccc1)C2 [Compound C227, (1R,2S,5S)-3-(diphenylcarbamoyl)-8-(methyl ((S)-1-phenylethyl)carbamoyl)-3,8-diazabicyclo [3.2.1]octane-2-carboxylic acid] | 7.74
2 | CN(Cc1cccnc1)C(=O)N1[C@H]2CC[C@@H]1[C@@H](C(=O)O)N(C(=O)N(c1ccccc1)c1ccccc1)C2 [Compound C124, (1R,2S,5S)-3-(diphenylcarbamoyl)-8-(methyl(pyridine-3-ylmethyl)carbamoyl)-3,8-diazabicyclo [3.2.1]octane-2-carboxylic acid] | 7.42
3 | CN(Cc1csc2ccccc12)C(=O)N1[C@H]2CC[C@@H]1[C@@H](C(=O)O)N(C(=O)N(c1ccccc1)c1ccccc1)C2 [Compound C246] | 8.00
4 | C[C@H](c1ccccc1)N(C)C(=O)N1[C@H]2CC[C@@H]1[C@@H](C(=O)O)N(C(=O)N(c1ccccc1)c1ccccc1)C2 [Compound C226, (1R,2S,5S)-3-(diphenylcarbamoyl)-8-(methyl((R)-1-phenylethyl)carbamoyl)-3,8-diazabicyclo [3.2.1]octane-2-carboxylic acid] | 7.90
5 | CN(Cc1csc2ccccc12)C(=O)N1[C@H]2CC[C@@H]1[C@@H](C(=O)O)N(C(=O)C(c1ccccc1)c1ccccc1)C2 [Compound C279] | 7.62
6 | O=C(O)[C@H]1[C@@H]2CC[C@H](CN1C(=O)C(c1ccccc1)c1ccccc1)N2C(=O)C(c1ccccc1)c1ccccc1 [Compound C4, (1S,2R,5R)-3,8-bis (2,2-diphenylacetyl)-3,8-diazabicyclo [3.2.1]octane-2-carboxylic acid] | 8.01
7 | O=C(O)[C@@H]1[C@H]2CC[C@@H](CN1C(=O)N(c1ccccc1)c1ccccc1)N2C(=O)CCc1ccccc1 [Compound C221, (1R,2S,5S)-3-(diphenylcarbamoyl)-8-(3-phenylpropionyl)-3,8-diazabicyclo [3.2.1]octane-2-carboxylic acid] | 7.12
8 | Cc1ccc([C@H]2CCCN2C(=O)N2[C@H]3CC[C@@H]2[C@@H](C(=O)O)N(C(=O)N(c2ccccc2)c2ccccc2)C3)cc1 [Compound C143, (1R,2S,5S)-3-(diphenylcarbamoyl)-8-((R)-2-(p-tolyl)pyrrolidine-1-carbonyl)-3,8-diazabicyclo [3.2.1]octane-2-carboxylic acid] | 8.00
9 | CC(C)N(Cc1ccccc1)C(=O)N1[C@H]2CC[C@@H]1[C@@H](C(=O)O)N(C(=O)N(c1ccccc1)c1ccccc1)C2 [Compound C152, (1R,2S,5S)-8-(benzyl (isopropyl)carbamoyl)-3-(diphenylcarbamoyl)-3,8-diazabicyclo [3.2.1]octane-2-carboxylic acid] | 7.32
10 | CN(C)[C@@H](Cc1ccccc1)C(=O)N1[C@H]2CC[C@@H]1[C@@H](C(=O)O)N(C(=O)N(c1ccccc1)c1ccccc1)C2 [Compound C269, (1R,2S,5S)-8-((S)-2-(dimethylamino)-3-phenylpropionyl)-3-(diphenylcarbamoyl)-3,8-diazabicyclo [3.2.1]octane-2-carboxylic acid] | 7.17
11 | CCN(Cc1csc(Cl)c1)C(=O)N1[C@H]2CC[C@@H]1[C@@H](C(=O)O)N(C(=O)N(c1ccccc1)c1ccccc1)C2 [Compound C274, (1R,2S,5S)-8-(((5-chlorothiophene-3-yl)methyl) (ethyl)carbamoyl)-3-(diphenylcarbamoyl)-3,8-diazabicyclo [3.2.1]octane-2-carboxylic acid] | 7.70
12 | CCN(Cc1ccc(Cl)s1)C(=O)N1[C@H]2CC[C@@H]1[C@@H](C(=O)O)N(C(=O)N(c1ccccc1)c1ccccc1)C2 [Compound C281, (1R,2S,5S)-8-(((5-chlorothiophene-2-yl)methyl) (ethyl)carbamoyl)-3-(diphenylcarbamoyl)-3,8-diazabicyclo[3.2.1] octane-2-carboxylic acid] | 7.69
13 | O=C(O)[C@@H]1[C@H]2CC[C@@H](CN1C(=O)N(c1ccccc1)c1ccccc1)N2C(=O)N(c1ccccc1)c1ccccc1 [Compound C41, (1R,2S,5S)-3,8-bis (diphenylcarbamoyl)-3,8-diazabicyclo [3.2.1]octane-2-carboxylic acid] | 8.01
14 | CN(Cc1ccc(Br)cc1)C(=O)N1[C@H]2CC[C@@H]1[C@@H](C(=O)O)N(C(=O)N(c1ccccc1)c1ccccc1)C2 [Compound C165, (1R,2S,5S)-8-((4-bromobenzyl) (methyl)carbamoyl)-3-(diphenylcarbamoyl)-3,8-diazabicyclo [3.2.1]octane-2-carboxylic acid] | 7.85
15 | O=C(O)[C@@H]1[C@H]2CC[C@@H](CN1C(=O)N(c1ccccc1)c1ccccc1)N2C(=O)N(c1ccc(F)cc1)c1ccc(F)cc1 [Compound C145, (1R,2S,5S)-8-(bis(4-fluorophenyl)carbamoyl)-3-(diphenylcarbamoyl)-3,8-diazabicyclo [3.2.1]octane-2-carboxylic acid] | 6.96
16 | Cc1ccc(COC(=O)N2[C@H]3CC[C@@H]2[C@@H](C(=O)O)N(C(=O)C(c2ccccc2)c2ccccc2)C3)cc1 [Compound C194, (1R,2S,5S)-3-(2,2-diphenylacetyl)-8-(((4-methylbenzyl)oxy)carbonyl)-3,8-diazabicyclo [3.2.1]octane-2-carboxylic acid] | 6.89
17 | CN(Cc1ccccc1)C(=O)N1[C@H]2CC[C@@H]1[C@@H](C(=O)O)N(C(=O)C1(c3ccccc3)CCCCC1)C2 [Compound C120, (1R,2S,5S)-8-(benzyl(methyl)carbamoyl)-3-(1-phenylcyclohexane-1-carbonyl)-3,8-diazabicyclo [3.2.1]octane-2-carboxylic acid] | 6.46
18 | Cc1ccc(CN(C)C(=O)N2[C@H]3CC[C@@H]2[C@@H](C(=O)O)N(C(=O)N(c2ccccc2)c2ccccc2)C3)s1 [Compound C203, (1R,2S,5S)-3-(diphenylcarbamoyl)-8-(methyl ((5-methylthiophen-2-yl)methyl)carbamoyl)-3,8-diazabicyclo [3.2.1]octane-2-carboxylic acid] | 7.86
19 | C=Cc1ccc(CN(C)C(=O)N2[C@H]3CC[C@@H]2[C@@H](C(=O)O)N(C(=O)N(c2ccccc2)c2ccccc2)C3)cc1 [Compound C170, (1R,2S,5S)-3-(diphenylcarbamoyl)-8-(methyl(4-vinylbenzyl)carbamoyl)-3,8-diazabicyclo[3.2.1] octane-2-carboxylic acid] | 8.41
20 | CN(Cc1ccc2ccccc2n1)C(=O)N1[C@H]2CC[C@@H]1[C@@H](C(=O)O)N(C(=O)N(c1ccccc1)c1ccccc1)C2 [Compound C265, (1R,2S,5S)-3-(diphenylcarbamoyl)-8-(methyl (quinoline-2-ylmethyl)carbamoyl)-3,8-diazabicyclo [3.2.1]octane-2-carboxylic acid] | 7.56
21 | CCN(Cc1cc(C)cs1)C(=O)N1[C@H]2CC[C@@H]1[C@@H](C(=O)O)N(C(=O)N(c1ccccc1)c1ccccc1)C2 [Compound C273, (1R,2S,5S)-3-(diphenylcarbamoyl)-8-(ethyl((4-methylthiophen-2-yl)methyl)carbamoyl)-3,8-diazabicyclo [3.2.1]octane-2-carboxylic acid] | 7.68
22 | O=C(O)[C@@H]1[C@H]2CC[C@@H](CN1C(=O)Oc1ccccc1)N2C(=O)N(c1ccccc1)c1ccccc1 [Compound C69, (1R,2S,5S)-8-(diphenylcarbamoyl)-3-(phenoxycarbonyl)-3,8-diazabicyclo [3.2.1]octane-2-carboxylic acid] | 6.77

Source: US11453690B2, “Receptor inhibitor, pharmaceutical composition comprising same, and use thereof” (BEIJING TIDE PHARMACEUTICAL CO., LTD., priority 2018, dated 2022)
